Results on 4 compounds are retold here after paper PMC5342230, “ITC-derived binding affinity may be biased due to titrant (nano)-aggregation. Binding of halogenated benzotriazoles to the catalytic domain of human protein kinase CK2” (PLoS ONE, 2017).

≈ marks a conversion by molar mass, not a printed value. Where “and” joins values, the source holds several entries; their conditions need not be identical. Equal values may be shown once. Marks after values point to notes of the source that are not given here.

Series [1] has as its target T1, catalytic subunit of human protein kinase CK2 (hCK2α) (Homo sapiens, UniProt P68400).
T1 construct: made in house
In words: Microscale Thermophoresis (MST), global fit of two independent binding sites. The settings on record: for Kd: global fit of 6 pseudo-titrations. As for the experimental part: For MST experiments the protein sample additionally contained 5 mM β-mercaptoethanol to prevent sticking of protein to capillaries.
(§1) It should be stressed that the solvent composition of protein and ligand samples were always identical, so that the protein and ligand concentrations were the only variable factors.
The concentration of the labeled protein was kept constant at ~100 nM, while the ligand to protein concentration ratio was in the range of 0.01 to 10^5 nM. The samples were loaded into K002 Monolith™ NT.115 Standard Treated Capillaries, which after 10 min incubation time were analyzed using the Monolith NT.115 (NanoTemper Technologies). […] The numerical model was based on the cubic equation describing the concentration-dependent equilibrium of the apo form of the protein, free ligand, and their 1:1 and 1:2 complexes K1⋅K2⋅[L]^3+(K1+K1⋅K2⋅(2⋅P0-L0))⋅[L]^2+(1+K1⋅(P0-L0))⋅[L]=L0 (1) where P0 and L0 are the total concentrations of the protein and ligand, respectively; K1 and K2 are the […] for 1:1 and 1:2 complexes; and [L] is the concentration of the free ligand. The above equation can be resolved by roots against [L]
Concentrations of 1:1 and 1:2 complexes equal K1∙[P]∙[L] and K1∙K2∙[P]∙[L]^2, respectively. The model was implemented in Origin 9.0 package (www.originlab.com). Dissociation constants, K1 and K2, were estimated globally for a series of 6 MST pseudo-titration experiments, while contributions of three protein forms (i.e. apo, and 1:1 and 1:2 complexes) to the observed MST signal were fitted individually for each experiment (S1 Fig).

The target of series [2] is T1, catalytic subunit of human protein kinase CK2 (hCK2α). Nature of the series: ITC (hCK2α titrated with the ligand), one type of binding sites. As to conditions: ligand as titrant, 25°C. As for the experimental part: as §1
(§2) All ITC measurements were carried out at 25°C with the Nano ITC calorimeter (TA Instruments), using 250 rpm stirring and 1000 s delay between succeeding injections to the sample cell (950 μl). The first “technical” injection of a reduced volume (4–5 μl) was followed by 12 injections of 20 μl, however 16x15 μl or 10x25 μl schemes were occasionally used. The concentration of reagents varied depending on their affinities and experiment type. Thus 20–200 μM ligand solution was used as the titrant, but only 4–10 μM when placed in the sample cell. Accordingly, the sample cell was filled with 4–30 μM hCK2α solution, while 20–40 μM protein solution was placed in the syringe. For each ligand at least two titration experiments were done with different reagent concentrations, and occasionally with optimized injection volume. […] The resulting data were processed with the standard NanoAnalyze software package (version 3.5.0), assuming the model of one type of binding sites of the apparent stoichiometry close to 1:1. The automatically adjusted integration regions were used to minimize the impact of researcher’s arbitrary decision. The uncertainty of all determined values was estimated as the half-width of 67% confidence interval.

The target is the same in series [3]. In words: Reverse ITC (ligand titrated with hCK2α), one type of binding sites. As to conditions: strong site.
Series [4] has the same target. Nature of the series: Reverse ITC with MST-derived Kd (two types of binding sites, Kd constrained). As to conditions: for ΔG1 / ΔG2 / Kd: constrained based on the MST-derived binding affinities; for ΔH1 / ΔS1 / ΔH2 / ΔS2: reverse ITC, two-site model, Kd from MST; for ΔH1 / ΔS1: strong site; for ΔH2 / ΔS2: weak site. Here is the method:
All ITC measurements were carried out at 25°C with the Nano ITC calorimeter (TA Instruments), using 250 rpm stirring and 1000 s delay between succeeding injections to the sample cell (950 μl). The first “technical” injection of a reduced volume (4–5 μl) was followed by 12 injections of 20 μl, however 16x15 μl or 10x25 μl schemes were occasionally used. The concentration of reagents varied depending on their affinities and experiment type. Thus 20–200 μM ligand solution was used as the titrant, but only 4–10 μM when placed in the sample cell. Accordingly, the sample cell was filled with 4–30 μM hCK2α solution, while 20–40 μM protein solution was placed in the syringe. For each ligand at least two titration experiments were done with different reagent concentrations, and occasionally with optimized injection volume. […] The automatically adjusted integration regions were used to minimize the impact of researcher’s arbitrary decision. The uncertainty of all determined values was estimated as the half-width of 67% confidence interval.

Series [5] shares this target. Nature of the series: Reverse ITC (ligand titrated with hCK2α), one type of binding sites. The settings on record: protein as titrant, 25°C. As for the experimental part:
as §1, §2

The nature of series [6]: Dynamic light scattering (DLS/SLS) of ligand nano-aggregates. Type of series: physicochemical. As to conditions: for formation of nano-aggregates (DLS autocorrelation function): 1 mM ligand, 25°C, buffer with 2% DMSO. As for the experimental part:
All DLS experiments were carried out at 25°C with the DynaPro NanoStar 192-DPN apparatus (Wyatt Technology) equipped with 661 nm laser. The autocorrelation function for the light scattered by 5-BrBt or TBBt buffered solution placed in Eppendorf disposable cuvettes (50–2000 μl) was measured at various solute concentrations in the range of 0.5 μs– 0.1 s, and further decomposed to the distribution of particle size (ranging from 0.18 nm to 2.5 μm) using Dynamics software (Wyatt Technology, ver. 7.0.2.7). Solutions with 2% (v/v) DMSO content were prepared in 25 mM Tris-HCl (pH 8, 0.5 M NaCl) filtered with 0.22 μm pore size syringe filter. All samples were centrifuged (9000 g) for 3 minutes immediately before the experiment. For each sample a series of at least 30 repetitions, 10 s each, has been collected, and those with abnormally high SOS function and/or with highly fluctuating SLS signal were removed from the analysis. All remaining data have been averaged to obtain the autocorrelation function (ACF) of a reasonable quality. This procedure was found indispensable for diluted TBBt solutions, in which large aggregates have rarely scattered light crossing the laser beam. Consequently, extreme fluctuations of ACF precluded direct analysis of the time-evolution of TBBt aggregates. However, the raw SLS signal was found applicable to estimate the rate of aggregate disintegration.

Series [7] can be described thus: UV-VIS spectroscopy, deviation from Lambert-Beer law (ligand aggregation). Format: physicochemical. Here is the method: The absorption spectra (200–500 nm) were collected at 25°C using Varian Cary 50 UV-VIS spectrophotometer equipped with 1 cm quartz cells. The initial buffer solution was manually titrated with the 851 μM TBBt solution to record spectra for increasing solute concentration. For each sample UV-VIS spectrum was collected four times, every 20 s including 15 s acquisition time, starting 5 s after solute dilution. The changes in the absorption spectrum of 40 μM TBBt sample, prepared just before the experiment, were additionally tracked for an hour to follow possible disintegration of soluble aggregates.

On the set-up of series [8]: method as in http://www.sigmaaldrich.com/catalog/product/sigma/t0826. As to conditions: ref http://www.sigmaaldrich.com/catalog/product/sigma/t0826; cited from earlier work.
[9] abbreviates: strong site, read-out: Kd1 (strong binding site).
Setting [10] is: weak site, read-out: Kd2 (weak binding site).

T1 sequence (P68400 whole entry): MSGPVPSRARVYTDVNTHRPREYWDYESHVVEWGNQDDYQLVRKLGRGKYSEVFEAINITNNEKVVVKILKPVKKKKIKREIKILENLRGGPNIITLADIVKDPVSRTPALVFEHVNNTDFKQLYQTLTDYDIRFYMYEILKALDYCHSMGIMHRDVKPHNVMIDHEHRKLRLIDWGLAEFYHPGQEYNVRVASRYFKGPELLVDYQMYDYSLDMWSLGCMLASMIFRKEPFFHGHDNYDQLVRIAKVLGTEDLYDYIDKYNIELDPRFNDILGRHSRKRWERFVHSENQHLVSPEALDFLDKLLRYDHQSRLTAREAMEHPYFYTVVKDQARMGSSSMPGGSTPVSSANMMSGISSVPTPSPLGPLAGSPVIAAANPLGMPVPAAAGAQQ

For `Brc1cc2[nH]nnc2c(Br)c1Br` [4,5,6-Br3Bt, 4,5,6-tribromobenzotriazole], in series [1] (strong site), the ΔG1 was -9.66 ± 0.17 kcal/mol. For the same compound, the Kd in series [1] (setting [9]) was found to be 83 ± 29 nM. In series [1] (weak site), this compound yielded a ΔG2 of -7.29 ± 0.17 kcal/mol. Besides, the Kd in series [1] (setting [10]) was 4600 ± 1400 nM. For the same compound, in series [2], the Kd came to 990 ± 270 nM, the ΔG was -8.2 ± 0.14 kcal/mol, the ΔH is -8.37 ± 0.48 kcal/mol and the ΔS is -2 ± 5 J/mol/K. The “entropic contribution to binding” value in series [3] is recorded as “favorable entropic contribution”. Besides, in series [4], the ΔG1 was -40.4 ^x kJ/mol, the ΔG2 is -30.5 ^x kJ/mol, the ΔH1 was -10.5 ± 0.48 kcal/mol and the ΔS1 is -12 ± 9 J/mol/K. In series [4], this compound came in with a ΔH2 of 0.48 ± 2.2 kcal/mol and a ΔS2 of 109 ± 31 J/mol/K. Also, the Kd in series [4] (read-out: Kd1) amounted to 83 nM. In addition, the Kd in series [4] (read-out: Kd2) was determined as 4600 nM. In series [5], this compound came in with a Kd of 42 ± 17 nM, a ΔG of -10.1 ± 0.19 kcal/mol, a ΔH of -9.56 ± 0.24 kcal/mol and a ΔS of 9 ± 4 J/mol/K.
Consider `Brc1cc2nn[nH]c2cc1Br` [5,6-Br2Bt, 5,6-dibromobenzotriazole], for which, in series [1] (strong site), the ΔG1 was -9.68 ± 0.14 kcal/mol. The Kd in series [1] (setting [9]) was 81 ± 22 nM. The compound further came in with a ΔG2 in series [1] (weak site) of -7.31 ± 0.072 kcal/mol. The Kd in series [1] (setting [10]) is 4400 ± 500 nM. In series [2], this compound yielded a Kd of 1170 ± 270 nM, a ΔG of -8.1 ± 0.12 kcal/mol, a ΔH of -15.1 ± 0.48 kcal/mol and a ΔS of -97 ± 8 J/mol/K. Further, in series [4], the ΔG1 is reported as -40.5 ^x kJ/mol, the ΔG2 is on record as -30.6 ^x kJ/mol, the ΔH1 was -18.6 ± 3.11 kcal/mol and the ΔS1 is -126 ± 43 J/mol/K. Moreover, in series [4], the ΔH2 came out at 2.63 ± 8.13 kcal/mol and the ΔS2 was determined as 140 ± 114 J/mol/K. Also, the Kd in series [4] (read-out: Kd1) is 81 nM. The Kd in series [4] (read-out: Kd2) stood at 4400 nM. In series [5], the Kd is 46 ± 10 nM, the ΔG is -10 ± 0.12 kcal/mol, the ΔH was -17 ± 0.48 kcal/mol and the ΔS is recorded as -98 ± 6 J/mol/K.
As for `Brc1ccc2nn[nH]c2c1` [5-BrBt], in series [1] (strong site), the ΔG1 is -9.01 ± 0.072 kcal/mol. Further, in series [1] (setting [9]), the Kd stood at 246 ± 36 nM. The ΔG2 in series [1] (weak site) is -7.1 ± 0.096 kcal/mol. The Kd in series [1] (setting [10]) stood at 6300 ± 1000 nM. Besides, in series [2], the Kd was 310 ± 89 nM, the ΔG is -8.87 ± 0.14 kcal/mol, the ΔH was -16.3 ± 0.72 kcal/mol and the ΔS is -102 ± 9 J/mol/K. Further, in series [6], the “formation of nano-aggregates (DLS autocorrelation function)” value is given as “no such effect was observed”. In series [7] (control experiment), the “plot of concentration versus absorbance (Lambert-Beer law)” value is on record as “remained linear”. Moreover, in series [4], the ΔG1 is -37.7 ^x kJ/mol, the ΔG2 is given as -29.7 ^x kJ/mol, the ΔH1 is -17.4 ± 1.2 kcal/mol and the ΔS1 was -118 ± 15 J/mol/K. In series [4], the ΔH2 came to 1.7 ± 5.5 kcal/mol and the ΔS2 was determined as 123 ± 77 J/mol/K. In series [4] (read-out: Kd1), the Kd was found to be 246 nM. For the same compound, the Kd in series [4] (read-out: Kd2) was 6300 nM. In series [5], this compound registered a Kd of 294 ± 73 nM, a ΔG of -8.91 ± 0.12 kcal/mol, a ΔH of -16.7 ± 0.72 kcal/mol and a ΔS of -110 ± 10 J/mol/K.
With `Brc1c(Br)c(Br)c2[nH]nnc2c1Br` [TBBt, tetrabromobenzotriazole], in series [8], the “solubility in pure DMSO” value is 65 mM (≈ 28.3 mg/mL). Also, the “formation of nano-aggregates (DLS autocorrelation function)” value in series [6] is “forms nano-aggregates”. Also, the radius of nano-aggregates in series [6] (DLS, 1 mM down to 20 μM) is ~ 100 nm and 100 nm. Moreover, the “τ, decay of the aggregate population (raw SLS signal)” value in series [6] (after rapid dilution of 500 μM sample) was determined as 460 ± 40 s. Also, the “τ, increase of population of the monomeric form (absorption at 291 nm)” value in series [7] (40 μM solution, tracked for an hour) stood at 670 ± 40 s. Besides, the “upper limit of ligand concentration at which monomeric form predominates” value in series [7] (UV absorbance, deviation from Lambert-Beer law) is 20 to 30 µM.
